The compounds below were run against T1, human mGluR2 receptor (Homo sapiens, UniProt Q14416) (assay: [35S]GTPγS binding assay (PAM assay) using membranes from cells transfected with the human mGluR2 receptor). Details: membranes of CHO cells with human mGluR2; glutamate at predetermined EC25 concentration; averages of duplicate values of 11-concentration response curves.
T1 construct: expressed in transfected cells; host or cells: CHO cells
Type: biochemical
Procedure: The [^35S]GTPγS binding assay is a functional membrane-based assay used to study G-protein coupled receptor (GPCR) function whereby incorporation of a non-hydrolysable form of GTP, [^35S]GTPγS (guanosine 5′-triphosphate, labelled with […] ^35S), is measured.
CHO-cells were cultured to pre-confluence and stimulated with 5 mM butyrate for 24 hours, prior to washing in PBS, and then collection by scraping in homogenisation buffer (50 mM Tris-HCl buffer, pH 7.4, 4° C.). Cell lysates were homogenized briefly (15 s) using an ultra-turrax homogenizer. The homogenate was centrifuged at 23 500×g for 10 minutes and the supernatant discarded. The pellet was resuspended in 5 mM Tris-HCl, pH 7.4 and centrifuged again (30 000×g, 20 min, 4° C.). The final pellet was resuspended in 50 mM HEPES, pH 7.4 and stored at −80° C. in appropriate aliquots before use. Protein concentration was determined by the Bradford method (Bio-Rad, USA) with bovine serum albumin as standard.
Measurement of mGluR2 positive allosteric modulatory activity of test compounds in membranes containing human mGluR2 was performed using frozen membranes that were thawed and briefly homogenised prior to pre-incubation in 96-well microplates (15 μg/assay well, 30 minutes, 30° C.) in assay buffer (50 mM HEPES pH 7.4, 100 mM NaCl, 3 mM MgCl2, 50 μM GDP, 10 μg/ml saponin,) with increasing concentrations of positive allosteric modulator (from 0.3 nM to 50 μM) and either a minimal pre-determined concentration of glutamate (PAM assay), or no added glutamate. […] After addition of [^35S]GTPγS (0.1 nM, f.c.) to achieve a total reaction volume of 200 μl, microplates were shaken briefly and further incubated to allow [^35S]GTPγS incorporation on activation (30 minutes, 30° C.). The reaction was stopped by rapid vacuum filtration over glass-fibre filter plates (Unifilter 96-well GF/B filter plates, Perkin-Elmer, Downers Grove, USA) microplate using a 96-well plate cell harvester (Filtermate, Perkin-Elmer, USA), and then by washing three times with 300 μl of ice-cold wash buffer (Na2PO4.2H2O 10 mM, NaH2PO4.H2O 10 mM, pH=7.4). Filters were then air-dried, and 40 μl of liquid scintillation cocktail (Microscint-O) was added to each well, and membrane-bound [^35S]GTPγS was measured in a 96-well scintillation plate reader (Top-Count, Perkin-Elmer, USA). Non-specific [^35S]GTPγS binding is determined in the presence of cold 10 μM GTP. Each curve was performed at least once using duplicate sample per data point and at 11 concentrations.
The concentration-response curves of representative compounds of the present invention in the presence of added EC25 of mGluR2 agonist glutamate to determine positive allosteric modulation (PAM), were generated using the Prism GraphPad software (Graph Pad Inc, San Diego, USA). The curves were fitted to a four-parameter logistic equation (Y=Bottom+(Top-Bottom)/(1+10^((Log EC50−X)*Hill Slope) allowing determination of EC50 values. The EC50 is the concentration of a compound that causes a half-maximal potentiation of the glutamate response. This is calculated by subtracting the maximal responses of glutamate in presence of a fully saturating concentration of a positive allosteric modulator from the response of glutamate in absence of a positive allosteric modulator. The concentration producing the half-maximal effect is then calculated as EC50

T1 sequence (Q14416 19-872): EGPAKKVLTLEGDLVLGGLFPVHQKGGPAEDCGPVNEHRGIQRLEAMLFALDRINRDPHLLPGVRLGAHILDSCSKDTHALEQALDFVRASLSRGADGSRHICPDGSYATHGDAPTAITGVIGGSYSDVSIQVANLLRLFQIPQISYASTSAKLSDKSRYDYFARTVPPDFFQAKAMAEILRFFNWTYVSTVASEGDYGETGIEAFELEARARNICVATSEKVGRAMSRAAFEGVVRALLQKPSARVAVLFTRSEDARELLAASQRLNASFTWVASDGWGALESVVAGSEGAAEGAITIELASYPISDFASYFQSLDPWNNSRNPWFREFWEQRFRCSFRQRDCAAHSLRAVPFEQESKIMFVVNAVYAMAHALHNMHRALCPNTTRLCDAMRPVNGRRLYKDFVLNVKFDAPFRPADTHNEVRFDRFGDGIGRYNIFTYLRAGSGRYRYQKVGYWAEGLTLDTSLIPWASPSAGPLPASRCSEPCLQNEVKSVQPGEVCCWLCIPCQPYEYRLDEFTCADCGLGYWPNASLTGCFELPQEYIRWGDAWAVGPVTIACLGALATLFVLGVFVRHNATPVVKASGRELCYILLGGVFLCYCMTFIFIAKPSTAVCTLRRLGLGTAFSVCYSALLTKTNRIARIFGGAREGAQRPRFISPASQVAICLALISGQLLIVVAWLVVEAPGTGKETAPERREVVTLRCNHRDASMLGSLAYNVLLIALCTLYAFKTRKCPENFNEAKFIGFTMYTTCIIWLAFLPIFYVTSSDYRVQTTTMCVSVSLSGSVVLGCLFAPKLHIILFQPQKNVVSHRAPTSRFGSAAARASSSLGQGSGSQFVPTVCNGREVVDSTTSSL

| SMILES | GTPγS - hR2 PAM pEC50 |
| --- | --- |
| N#Cc1c(N2CCN(c3ncccn3)CC2)ccn2c(CCC3CC3)cnc12 [Example 55] | 5.96 |
| CC(C)(C)c1ccc(-c2ccn3c(CC(F)(F)F)cnc3c2C#N)cc1 [Example 88] | 6.35 |
| N#Cc1c(-c2ccc(NC3CC3)c(Cl)c2)ccn2c(CC(F)(F)F)cnc12 [Example 105, 7-(3-Chloro-4-cyclopropylamino-phenyl)-3-(2,2,2-trifluoro-ethyl)-imidazo[1,2-a]pyridine-8-carbonitrile] | 6.85 |
| N#Cc1c(-c2ccc(N3CCCCC3)cc2)ccn2c(CC(F)(F)F)cnc12 [Example 107] | 6.63 |
| N#Cc1c(-c2ccc(N3CCOCC3)c(Cl)c2)ccn2c(CC(F)(F)F)cnc12 [Example 110] | 5.67 |
| N#Cc1c(-c2ccc(OCc3ccccc3)cc2)ccn2c(CC(F)(F)F)cnc12 [Example 120] | 6.80 |

Same assay, conditions: membranes of CHO cells with human mGluR2; glutamate at predetermined EC25 concentration; averages of duplicate values of 11-concentration response curves; read-out: GTPγS - hR2 PAM pEC50 (converted)

| SMILES | EC50 |
| --- | --- |
| N#Cc1c(CN2CCC(c3ccccc3)CC2)ccn2c(-c3ccccc3)cnc12 [Example 1, 3-Phenyl-7-(4-phenyl-piperidin-1-ylmethyl)-imidazo[1,2-a]pyridine-8-carbonitrile] | 0.513 µM |
| N#Cc1c(N2CCC(c3ccccc3)CC2)ccn2c(CC(F)(F)F)cnc12 [Example 3, 7-(4-Phenyl-piperidin-1-yl)-3-(2,2,2-trifluoro-ethyl)-imidazo[1,2-a]pyridine-8-carbonitrile] | 0.123 µM |
| Cc1cc(Oc2ccc(-c3ccn4c(CC(F)(F)F)cnc4c3C#N)c(F)c2)ccn1 [Example 4, 7-[2-Fluoro-4-(2-methyl-pyridin-4-yloxy)-phenyl]-3-(2,2,2-trifluoro-ethyl)-imidazo[1,2-a]pyridine-8-carbonitrile] | 0.692 µM |
| N#Cc1c(N2CCC(c3ccccc3)CC2)ccn2c(Cc3ccccc3)cnc12 [Example 7] | 0.178 µM |
| N#Cc1c(N2CCC(c3ccccc3)CC2)ccn2c(-c3ccccc3)cnc12 [Example 10] | 0.398 µM |
| Cc1cc(Oc2ccc(-c3ccn4c(CC(F)(F)F)cnc4c3C#N)cc2)ccn1 [Example 13] | 0.589 µM |
| Cc1cc(Oc2ccc(-c3ccn4c(CC(F)(F)F)cnc4c3C#N)cc2F)ccn1 [Example 17] | 1.12 µM |
| CCc1cnc2c(C#N)c(-c3ccc(Oc4ccnc(C)c4)cc3)ccn12 [Example 18] | 1.32 µM |
| N#Cc1c(CN2CCC(c3ccccc3)CC2)ccn2c(CC(F)(F)F)cnc12 [Example 27] | 0.295 µM |
| N#Cc1c(N2CCC(c3ccccc3)CC2)ccn2c(C(F)(F)F)cnc12 [Example 29, 7-(4-Phenyl-piperidin-1-yl)-3-trifluoromethyl-imidazo[1,2-a]pyridine-8-carbonitrile] | 0.776 µM |
| N#Cc1c(CN2CCN(c3ccc(F)cc3F)CC2)ccn2c(CC(F)(F)F)cnc12 [Example 39] | 1.38 µM |
| FC(F)(F)Cc1cnc2c(Cl)c(CN3CCC(c4ccccc4)CC3)ccn12 [Example 42] | 0.562 µM |
| N#Cc1c(N2CCC(c3ccccc3)CC2)ccn2c(C3CC3)cnc12 [Example 49] | 0.676 µM |
| N#Cc1c(N2CCN(c3ccc(F)cc3F)CC2)ccn2c(CC(F)(F)F)cnc12 [Example 52] | 0.275 µM |
| Cc1cccnc1N1CCN(c2ccn3c(CC(F)(F)F)cnc3c2C#N)CC1 [Example 53] | 1.35 µM |
| Cc1cnc(N2CCN(c3ccn4c(CC(F)(F)F)cnc4c3C#N)CC2)nc1 [Example 56] | 0.646 µM |
| N#Cc1c(N2CCC(c3ccc(N4CCOCC4)cc3)CC2)ccn2c(CC(F)(F)F)cnc12 [Example 57] | 0.479 µM |
| CC(O)c1ccc(C2CCN(c3ccn4c(CC(F)(F)F)cnc4c3C#N)CC2)cc1 (stereo not shown) [Example 59] | 0.372 µM |
| Cc1ccnc(N2CCN(c3ccn4c(CC(F)(F)F)cnc4c3C#N)CC2)n1 [Example 60] | 0.525 µM |
| COc1c(F)cccc1C1CCN(c2ccn3c(CC(F)(F)F)cnc3c2C#N)CC1 [Example 61, 7-[4-(3-Fluoro-2-methoxy-phenyl)-piperidin-1-yl]-3-(2,2,2-trifluoro-ethyl)-imidazo[1,2-a]pyridine-8-carbonitrile] | 0.0372 µM |
| COc1cccc(F)c1C1CCN(c2ccn3c(CC(F)(F)F)cnc3c2C#N)CC1 [Example 69] | 0.00977 µM |
| Fc1ccc(Oc2ccc(-c3ccn4c(CC(F)(F)F)cnc4c3Cl)cc2)cc1 [Example 70] | 0.269 µM |
| N#Cc1c(-c2ccc(C(F)(F)c3ccccc3)cc2)ccn2c(CC(F)(F)F)cnc12 [Example 72] | 0.214 µM |

| SMILES | EC50 |
| --- | --- |
| N#Cc1c(-c2ccc(Oc3ccccc3)c(F)c2)ccn2c(CC(F)(F)F)cnc12 [Example 76] | 0.269 µM |
| N#Cc1c(-c2ccc(Oc3ccc(C(=O)O)cc3)cc2)ccn2c(CC(F)(F)F)cnc12 [Example 83] | 0.676 µM |
| N#Cc1c(-c2ccc(OC3CCCC3)c(Cl)c2)ccn2c(CC(F)(F)F)cnc12 [Example 84] | 0.302 µM |
| CC(C)(O)COc1ccc(-c2ccn3c(CC(F)(F)F)cnc3c2C#N)cc1Cl [Example 86] | 3.16 µM |
| CC(C)Oc1ccc(-c2ccn3c(CC(F)(F)F)cnc3c2C#N)cc1Cl [Example 87] | 0.309 µM |
| N#Cc1c(-c2ccc(OC3CCOCC3)c(Cl)c2)ccn2c(CC(F)(F)F)cnc12 [Example 90] | 0.676 µM |
| N#Cc1c(-c2ccc(N[C@H]3CC[C@@H](O)CC3)c(Cl)c2)ccn2c(CC(F)(F)F)cnc12 [Example 95, (cis)-7-[3-Chloro-4-(4-hydroxy-cyclohexylamino)-phenyl]-3-(2,2,2-trifluoro-ethyl)-imidazo[1,2-a]pyridine-8-carbonitrile] | 0.186 µM |
| C[C@]1(O)CC[C@H](Oc2ccc(-c3ccn4c(CC(F)(F)F)cnc4c3C#N)cc2Cl)CC1 [Example 97] | 0.603 µM |
| CC1(O)CCC(Nc2ccc(-c3ccn4c(CC(F)(F)F)cnc4c3Cl)cc2Cl)CC1 (stereo not shown) [Example 98, 4-{2-Chloro-4-[8-chloro-3-(2,2,2-trifluoro-ethyl)-imidazo[1,2-a]pyridin-7-yl]-phenylamino}-1-methyl-cyclohexanol] | 0.49 µM |
| N#Cc1c(-c2ccc(O[C@H]3CC[C@H](O)CC3)c(Cl)c2)ccn2c(CC(F)(F)F)cnc12 [Example 102] | 0.851 µM |
| C[C@]1(O)CC[C@@H](Oc2ccc(-c3ccn4c(CC(F)(F)F)cnc4c3C#N)cc2Cl)CC1 [Example 104] | 1.05 µM |
| N#Cc1c(-c2ccc(NC3CC3)c(F)c2)ccn2c(CC(F)(F)F)cnc12 [Example 106] | 6.31 µM |
| N#Cc1c(-c2ccc(N3CCCC3)c(Cl)c2)ccn2c(CC(F)(F)F)cnc12 [Example 108] | 0.457 µM |
| FC(F)(F)Cc1cnc2c(Cl)c(-c3ccc(N4CCCCC4)cc3)ccn12 [Example 109] | 0.275 µM |
| N#Cc1c(-c2ccc(N3CCC(O)CC3)cc2)ccn2c(CC(F)(F)F)cnc12 [Example 111] | 1.05 µM |
| N#Cc1c(-c2ccc(COc3ccccc3F)cc2)ccn2c(CC(F)(F)F)cnc12 [Example 113] | 0.155 µM |
| N#Cc1c(N2CCc3c([nH]c4ccccc34)C2)ccn2c(CC(F)(F)F)cnc12 [Example 117] | 0.692 µM |
| N#Cc1c(N2CCC(c3ccccc3CCF)CC2)ccn2c(CC(F)(F)F)cnc12 [Example 118] | 0.0631 µM |
| N#Cc1c(N2CCC(c3cccc(F)c3OCCF)CC2)ccn2c(CC(F)(F)F)cnc12 [Example 119] | 0.0575 µM |
| N#Cc1c(N2CCC(c3ccccc3)(N3CCOCC3)CC2)ccn2c(CC(F)(F)F)cnc12 [Example 121] | 2.09 µM |
| N#Cc1c(N2CCC([C@H]3CC[C@H](O)CC3)CC2)ccn2c(CC(F)(F)F)cnc12 [Example 122] | 0.55 µM |
| FC(F)(F)Cc1cnc2c(Cl)c(CN3CCC4(CC3)COc3ccccc3O4)ccn12 [Example 124] | 0.794 µM |
| FC(F)(F)Cc1cnc2c(Cl)c(N3CCC4(CC3)CN(c3ccccc3)C4)ccn12 [Example 125] | 1.78 µM |
